{"source": "patent US20150159180A1", "about": "“PROCESS FOR PRODUCTION OF C[…] USING PICHIA CARIBBICA AND ITS APPLICATION FOR QUORUM SENSING INHIBITION” (COUNCIL OF SCIENTIFIC & INDUSTRIAL RESEARCH, priority 2012, published 2015)", "key": {"[1]": {"tested_on": "Chromobacterium violaceum CV026", "test": "Violacein inhibition assay (quantitative), tube assay", "format": "cell-based", "method": "This assay is based on a similar principle to the one described above, that is the presence of any quorum sensing inhibitor will quantitatively decrease the production of the purple pigment violacein which can then be estimated colorimetrically. This is a tube assay in which 100 μl of overnight culture of CV026 was inoculated in 10 ml LB broth containing the QS signal molecule (namely C6-HSL, C8-HSL or 3-oxo-C6-HSL) at appropriate concentrations. The test compound, Pichia sp. synthesized xylitol in the present invention, was then added at increasing concentrations in a series of test tubes. The violacein produced was extracted from the culture broth by dissolution of the pigment in DMSO and separating it from the cell mass by centrifugation. The amount of xylitol required to inhibit or substantially decrease the purple pigment production could be quantitatively estimated by measuring the optical density at 570 nm. Appropriate positive and negative controls were used. All experiments were done in triplicates for checking reproducibility."}, "[2]": {"tested_on": "Chromobacterium violaceum mutant CV026", "test": "Violacein inhibition assay (qualitative), agar well", "format": "cell-based", "conditions": "QS signal molecule 12.5 μM, 30° C., 24 hours, FIG. 5", "method": "This assay has been designed in such a way that a zone inhibition of Violacein synthesis can be seen around the agar well containing the probable QS Inhibitor. Chromobacterium violaceum mutant CV026 is used as the test organism which has the ability to respond to a variety of signal molecules. The QS signal molecule (12.5 μM) is added to 10 ml of Luria bertani soft agar containing 100 μl of overnight culture of CV026. The soft agar is then overlayed onto basal LA plate, and a 4 mm diameter well is dug in the centre of the plate using a sterile cork borer after the overlay is set. To the agar well 75 μl of appropriate concentration of the compound under investigation was added, and the plates were incubated at 30° C. for 24 hours. The diameter of zone of Violacein inhibition was then measured. Pure xylitol from sigma was used for comparative analysis."}, "[3]": {"conditions": "increasing concentration of xylitol, CV026"}}}
{"smiles": "OC[C@@H](O)[C@H](O)[C@@H](O)CO", "note": "[Pichia xylitol, xylitol]", "values": [{"measurement": "antagonism of AHL signal and receptor interaction", "setting": "[1]; CV026 based AHL antagonism assay, C6-HSL, C8-HSL and 3-oxo-C6-HSL", "value": "able to antagonize not one but three different AHL signal and receptor interaction"}, {"measurement": "inhibitory effect on the organism", "setting": "[1]; [3]", "value": "not inhibitory to the organism"}, {"measurement": "quorum sensing signal reception", "setting": "[1]; [3]", "value": "severely impaired quorum sensing signal reception"}, {"measurement": "inhibition of Violacein production", "setting": "[1]; increasing concentrations of xylitol, optical density at 570 nm, FIG. 6", "value": "could quantitatively inhibit Violacein production"}, {"measurement": "zone of inhibition of Violacein synthesis", "setting": "[2]", "value": "zone of inhibition of Violacein synthesis around the agar well"}]}
